In patent publication US9551722B2, “Amyloid binding agents” (The Regents of the University of California, priority 2009, dated 2017):
“And” between values parts separate entries of the source, which are not always exact repeats. Equal entries are not always repeated.

Target: T1, interaction of the aggregated Aβ peptide with a monoclonal anti-Aβ IgG (Homo sapiens, UniProt P05067)
T1 construct: Aggregated Aβ peptides were generated from synthetic Aβ(1-42) peptides
Experiment: Semi-quantitative ELISA: inhibition of IgG-Aβ fibril interactions
Assay type: binding
Details: anti-Aβ IgG clone 6E10; for IC50: 50% inhibition of IgG-Aβ interactions; for Maximum % inhibition (ELISA): maximal percentage of IgG inhibited from binding to the fibrils
Method: The association of the synthesized compounds with aggregated Aβ peptides was tested using a semi-quantitative ELISA based assay developed by Yang and co-workers. See P. Inbar, J. Yang, Bioorg. Med. Chem. Lett. 2006, 16:1076-1079; P. Inbar, C. Q. Li, S. A. Takayama, M. R. Bautista, J. Yang, ChemBioChem 2006, 7:1563-1566; P. Inbar, M. R. Bautista, S. A. Takayama, J. Yang, Anal. Chem. 2008, 80:3502-3506. The assay is based on screening for molecules that inhibit the interaction of the aggregated Aβ peptide with a monoclonal anti-Aβ IgG raised against residues 1-17 of Aβ. Table 4 provides the concentrations of the compounds corresponding to 50% inhibition (IC50) of the IgG-Aβ interactions as well as the maximal percentage of the IgG's inhibited from binding to the fibrils. […] The maximum inhibition, a measure of the extent of surface coating of the aggregated peptide by the compounds, was determined to be between 40-98% (Table 4). See P. Inbar, J. Yang, Bioorg. Med. Chem. Lett. 2006, 16:1076-1079; P. Inbar, C. Q. Li, S. A. Takayama, M. R. Bautista, J. Yang, ChemBioChem 2006, 7:1563-1566; P. Inbar, M. R. Bautista, S. A. Takayama, J. Yang, Anal. Chem. 2008, 80:3502-3506. […] Specifically, while the maximum inhibition is between 81-98% for the phenyl compounds, it decreases to 58% for the longer naphthalene compound 11 and to 40% for the more conjugated stilbene 19.
Aggregated Aβ peptides were generated from synthetic Aβ(1-42) peptides by dissolving 30 μg of peptide in 90 μL of nanopure water (pH 5-6) and incubating at 37° C. for ≧72 h without agitation. Each well of a 96-well plate (well volume 0.4 mL; clear, flat bottom polypropylene) was coated for 3 h at 25° C. with 50 μL of 1.3 μM solution of Aβ peptides in phosphate-buffered saline (PBS, 10 mM NaH2PO4/Na2HPO4, 138 mM NaCl, 2.7 mM KCl, pH 7.4). After removal of the excess sample, 50 μL solutions of compounds in PBS buffer (various concentrations were obtained by diluting a stock solution with PBS buffer) were incubated in the wells for 12 h. […] The excess solutions were then removed and all wells were blocked for 30 min by adding 300 μL of a 1% (w/v) solution of bovine serum albumin in PBS buffer (BSA/PBS). On occasion, an additional blocking step was performed prior to incubation with solutions of small molecules. The blocking solution was discarded and the wells were washed once with 300 μL of PBS buffer. Wells were incubated for 1 h with 50 μL of a 1.1 nM solution (in 1% BSA/PBS, dilution 1:6000) of anti-Aβ IgG (clone 6E10, monoclonal, mouse), followed by removal of the solution. The wells were washed twice with 300 μL of PBS buffer and incubated for 60 min with 50 μL of the secondary IgG (anti-mouse IgG H+L, polyclonal, rabbit) conjugated with alkaline phosphatase (6.8 nM in 1% BSA/PBS, dilution 1:1000). The solution was discarded, and the wells were washed twice with 300 μL PBS buffer. Bound secondary IgGs were detected by the addition of 50 μL of a p-nitrophenyl phosphate solution (2.7 mM, in 100 mM diethanol amine/0.5 mM magnesium chloride, pH 9.8). Absorbance intensities were determined at 405 nm using a UV-vis spectroscopic plate reader (Sprectramax 190, Molecular Devices, Sunnyvale, Calif.). Each run was performed five times and averaged. Error bars represent standard deviations. Graphs were plotted and fitted with the sigmoid curve fitting.

T1 sequence (P05067 672-713 limits assumed): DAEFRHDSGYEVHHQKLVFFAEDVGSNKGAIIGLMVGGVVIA

IC50 | Maximum % inhibition (ELISA) [%] | Compound
11.4 µM | 98 | CCN(CC)c1ccc(C=C(C#N)C(=O)OCCOCCOCCOC)cc1 (stereo in doubt) [Cmpd 8c, (Z)-2-(2-(2-methoxyethoxyl)ethoxy)ethyl 2-cyano-3-(4-(diethylamino)phenyl)acrylate]
129 µM | 81 | COCCOCCOCCOC(=O)/C(C#N)=C/c1ccc(N(C)C)cc1 [Cmpd 8a, (E)-2-(2-(2-methoxyethoxyl)ethoxy)ethyl 2-cyano-3-(4-(dimethylamino)phenyl)acrylate]
90.6 µM | 91 | CCCCN(CCCC)c1ccc(C=C(C#N)C(=O)OCCOCCOCCOC)cc1 (stereo in doubt) [Cmpd 8d, (Z)-2-(2-(2-methoxyethoxyl)ethoxy)ethyl-2-cyano-3-(4-(dibutylamino)phenyl)acrylate]
1.17 µM and 1.2 µM | 92 | COCCOCCOCCOC(=O)/C(C#N)=C/c1ccc(N(C)C)cc1OC [Cmpd 8b, (E)-2-(2-(2-methoxyethoxyl)ethoxy)ethyl 2-cyano-3-(4-(dimethylamino)-2-methoxyphenyl)acrylate]

Second part, the compound before the results:

Compound | IC50 | Maximum % inhibition (ELISA) [%]
COCCOCCOCCOC(=O)/C(C#N)=C/c1ccc2cc(N3CCCCC3)ccc2c1 [Cmpd 11, (E)-2-(2-(2-methoxyethoxyl)ethoxy)ethyl-2-cyano-3-(6-(piperidin-1-yl)naphthalen-2-yl)acrylate] | 74.3 µM | 58
CN(C)c1ccc(/C=C(\C#N)C(=O)OCC(O)CO)cc1 (stereo not drawn) [Cmpd 14, (E)-2,3-dihydroxypropyl 2-cyano-3-(4-(dimethylamino)phenyl) acrylate] | 82.1 µM | 79
